In patent US7566710B2, “Dual molecules containing a peroxide derivative, synthesis and therapeutic applications thereof” (Centre National de la Racherche Scientifique (C.N.R.S.), priority 2000, dated 2009):
“And” between values parts separate entries of the source, which are not always exact repeats. Equal values may be shown once. “Also recorded” adds a separate entry of the source. Read-outs that look alike come from different tables or passages of the source.

Columns and labels:
[1] = system: P. falciparum Nigerian (chloroquine susceptible strain); assay: Anti-malarial activity on P. falciparum Nigerian strain, tritiated hypoxanthine incorporation; format: cell-based, Plasmodium falciparum
Method: (§1) The parasite populations are synchronised over a 4 hour period by flotation with a gelatine solution, followed by lysis with 5% D-sorbitol 7,8. […] The anti-malarial activity tests are performed using Desjardins' radioactive micromethod 11. The tests are performed in triplicate, in 96-well microplates, the readings being at 1% haematocrit and 0.5-1% parasitaemia. For each test, the parasites are incubated with decreasing concentrations of drug for either 32 hours and 72 hours (4 wells contain chloroquine diphosphate as a reference). […] The parasite growth is measured with the incorporation of tritiated hypoxanthine compared to incorporation in the absence of drug (taken to be 100%). 12 and the IC50 values are determined graphically by plotting the percentage of inhibition as a function of the drug concentration.

[2] = system: P. falciparum FcB1-Colombia (chloroquine resistant strain); assay: Anti-malarial activity on P. falciparum FcB1-Colombia strain, tritiated hypoxanthine incorporation; format: cell-based, Plasmodium falciparum
Method: The P. falciparum strains are cultured continuously according to Trager and Jensen's method 5, with the following modifications 6: the parasites are maintained in human red blood cells (O±), diluted to 1% haematocrit in RPMI 1640 medium supplemented with 25 mM Hepes+30 mM NaHCO3 and complemented with 5% AB+ human serum. The parasite populations are synchronised over a 4 hour period by flotation with a gelatine solution, followed by lysis with 5% D-sorbitol 7,8. […]. The anti-malarial activity tests are performed using Desjardins' radioactive micromethod 11. The tests are performed in triplicate, in 96-well microplates, the readings being at 1% haematocrit and 0.5-1% parasitaemia. For each test, the parasites are incubated with decreasing concentrations of drug for either 32 hours and 72 hours (4 wells contain chloroquine diphosphate as a reference). The first dilution of the drug is performed at 10 mg/ml in dimethylsulphoxide and the following dilutions are made with RPMI 1640. The parasite growth is measured with the incorporation of tritiated hypoxanthine compared to incorporation in the absence of drug (taken to be 100%). 12 and the IC50 values are determined graphically by plotting the percentage of inhibition as a function of the drug concentration.

P. vinckei = assay: 4 day test in mice infected with P. vinckei; format: in vivo; details: intraperitoneal route, for 2 months
P. falciparum in culture = assay: In vitro activity on P. falciparum in culture; format: cell-based; details: Plasmodium falciparum, read-out: LC50
[3] = Toxicity after administration to healthy mice; details: 100 mg/kg/day oral route, three consecutive days
E. coli GE864 = assay: Mutagenicity, SOS response (DNA repair induction) in E. coli GE864; format: cell-based; details: E. coli GE864, 5, 10, 15 and 20 μM; control 3 μM mitomycin C
[4] = system: P. falciparum FcM29-Cameroon (highly chloroquine resistant strain); assay: Anti-malarial activity on P. falciparum FcM29-Cameroon strain, tritiated hypoxanthine incorporation; format: cell-based, Plasmodium falciparum
Method: as §1

[5] = system: three Plasmodium falciparum strains; assay: Anti-malarial activity, summary over the Nigerian, FcB1 and FcM29 strains; format: cell-based; details: susceptible and resistant strains
Method: as §1

[6] = system: P. falciparum FcM29-Cameroon (highly chloroquine resistant strain); details: read-out: IC50 for chloroquine, literature refs 9,10; cited from earlier work
[7] = system: P. falciparum FcB1-Colombia (chloroquine resistant strain); details: read-out: IC50 for chloroquine, FcB1-Columbia strain, literature refs 9,10; cited from earlier work
[8] = system: human Plasmodium falciparum isolates; assay: Activity on human Plasmodium falciparum isolates; format: cell-based
Method: Trioxaquine-citrate 4, referred to as DU-1102, was tested on human Plasmodium falciparum isolates, some of which were chloroquine- and/or pyrimethamine-resistant.

[9] = Nigerian (CQS), 32 hrs, read-out: IC50
[10] = Nigerian (CQS), 72 hrs, read-out: IC50
[11] = FcB1-Colombia (CQR), 32 hrs, read-out: IC50
[12] = FcB1-Colombia (CQR), 72 hrs, read-out: IC50

NCCNc1ccnc2cc(Cl)ccc12 [Quinoline-amine1, 7-chloro-4-[N-(2-aminoethyl)amino]-quinoline]
IC50 ([1]; Plasmodium falciparum, Nigerian (CQS), 32 hrs, read-out: IC50): 0.033 µg/mL
IC50 ([1]; Plasmodium falciparum, Nigerian (CQS), 72 hrs, read-out: IC50): 0.007 µg/mL
IC50 ([2]; Plasmodium falciparum, FcB1-Colombia (CQR), 32 hrs, read-out: IC50): 0.035 µg/mL
IC50 ([2]; Plasmodium falciparum, FcB1-Colombia (CQR), 72 hrs, read-out: IC50): 0.02 µg/mL

CC(C)C1=CC2OC3(CCC(NCCNc4ccnc5cc(Cl)ccc45)CC3)OOC2(C)CC1.O=C(O)CC(O)(CC(=O)O)C(=O)O.O=C(O)CC(O)(CC(=O)O)C(=O)O (centres unmarked) [DU-1302]
re-emergence (P. vinckei): no observable re-emergence
LC50 (P. falciparum in culture): 0.006 µM
apparent toxicity [3]: does not show any apparent toxicity
mutagenicity, induction of DNA repair (SOS response) (E. coli GE864): Absence of mutagenicity

O=C1CCC2(CC1)OOC1(c3ccccc3)CC(c3ccccc3)=CC1O2 (centres unmarked) [Trioxane-ketone 2]
IC50 [1, 9]: 0.149 µM
IC50 [1, 10]: 0.045 µM
IC50 [2, 11]: 0.113 µM
IC50 [2, 12]: 0.036 µM

CCN(CC)CCCC(C)Nc1ccnc2cc(Cl)ccc12 (centres unmarked) [Chloroquine diphosphate]
IC50 ([1]; Plasmodium falciparum, 32 h): 0.045 µg/mL and 87 nM
IC50 ([1]; Plasmodium falciparum, 72 h): 0.01 µg/mL and 19 nM
IC50 ([2]; Plasmodium falciparum, FCB1, 32 h): 0.075 µg/mL
IC50 ([2]; Plasmodium falciparum, FCB1, 72 h): 0.06 µg/mL and 116 nM
IC50 ([4]; Plasmodium falciparum, 32 h): 0.1 µg/mL and 194 nM
IC50 ([4]; Plasmodium falciparum, 72 h): 0.08 µg/mL and 155 nM

Clc1ccc2c(NCCNC3CCC4(CC3)OOC3(c5ccccc5)CC(c5ccccc5)=CC3O4)ccnc2c1 (mixture of isomers) [Trioxaquine 3]
activity compared with chloroquine and the two fragments [5]: significantly greater than the activity of not only chloroquine, but also of each of the two fragments
IC50 ([1]; Nigerian (CQS), 32 hrs): 0.001 µg/mL
IC50 [1, 9]: 0.0018 µM
IC50 [2, 12]: 0.009 µM
IC50 ([4]; FcM29-Cameroon (CQR+), 72 hrs, read-out: IC50): 0.018 µM

CCN(CC)CCCC(C)Nc1ccnc2cc(Cl)ccc12 (centres unmarked) [chloroquine]
IC50 [6]: > 0.1 µM
IC50 [7]: > 0.1 µM

Clc1ccc2c(NCCCCNC3CCC4(CC3)OOC3(c5ccccc5)CC(c5ccccc5)=CC3O4)ccnc2c1 (mixture of isomers) [Trioxaquine 9]
activity compared with chloroquine and the two fragments [5]: significantly greater than the activity of not only chloroquine, but also of each of the two fragments

Clc1ccc2c(NCCNC3CCC4(CC3)OOC3(c5ccccc5)CC(c5ccccc5)=CC3O4)ccnc2c1.O=C(O)CC(O)(CC(=O)O)C(=O)O.O=C(O)CC(O)(CC(=O)O)C(=O)O (centres unmarked) [Trioxaquine 4]
activity compared with chloroquine and the two fragments [5]: significantly greater than the activity of not only chloroquine, but also of each of the two fragments
IC50 ([1]; Nigerian (CQS), 32 hrs): 0.033 µg/mL
IC50 [1, 9]: 0.035 µM
IC50 ([1]; Nigerian (CQS), 72 hrs): 0.007 µg/mL
IC50 [1, 10]: 0.008 µM
IC50 ([2]; FcB1-Colombia (CQR), 32 hrs): 0.035 µg/mL
IC50 [2, 11]: 0.037 µM
IC50 ([2]; FcB1-Colombia (CQR), 72 hrs): 0.02 µg/mL
IC50 [2, 12]: 0.021 µM
IC50 geometric mean [8]: 0.041 µg/mL
relation of activity to susceptibility or resistance to other anti-malarial agents (chloroquine, pyrimethamine) ([8]; listed as DU-1102): independent of their susceptibility or their resistance; also recorded: no correlation
IC50 ([8]; read-out: IC50 geometric mean): 0.043 µM
